Test results from article PMC9810691, “Structure-guided peptide engineering of a positive allosteric modulator targeting the outer pore of TRPV1 for long-lasting analgesia” (Nature Communications, 2023).
“Also recorded” adds a separate entry of the source. Where a SMILES comes first, the peptide text is derived from it. Bridges are numbered along the chain shown (N, C = ends).

How the values were obtained:
TRPV2 = experiment: Selectivity: 2-APB-evoked TRPV2 current; format: cell-based, murine; conditions: 500 μM 2-APB; normalized to 4 mM 2-APB; mean ± S.E.M., n = 4
Procedure: (§1) HEK293T cells are cultured using DMEM medium contained 10% FBS in a cell incubator with 5% CO2 at 37 °C. Plasmids of murine TRPV1, TRPV2, TRPV3 and human TRPA1 are labeled with YFP or GFP as indicators for subsequent electrophysiological recordings. cDNA constructs of ion channels were transiently transfected with Lipofectamine 2000 (Invitrogen, Carlsbad, CA). And one or 2 days after transient transfection, electrophysiological recordings were performed.
(§2) Patch-clamp recordings were carried out with a HEKA EPC10 amplifier controlled by PatchMaster software (HEKA). Patch pipettes were prepared from borosilicate glass and fire-polished to resistance of 3–8 MΩ by P-97 puller. Both bath solution and pipette solution contained 130 mM NaCl, 10 mM glucose, 0.2 mM EDTA, and 3 mM HEPES and were adjusted to pH 7.2–7.4 with NaOH for whole-cell recordings. For solution with pH lower than 6.5, HEPES was replaced by MES. Whole-cell recordings were performed at ±80 mV. Current was sampled at 10 kHz and filtered at 2.9 kHz. All recordings were performed at room temperature (25 °C). A gravity-driven system (RSC-200, Bio-Logic) with freely rotated perfusion tubes was used for the perfusion of peptide or ligands. Bath and ligand solution were delivered through separate tubes to minimize the mixing of solutions. Patch pipette holding cells was placed in front of the perfusion tube outlet for perfusion.

TRPV3 = experiment: Selectivity: 2-APB-evoked TRPV3 current; format: cell-based, murine; conditions: 30 μM 2-APB; normalized to 1 mM 2-APB; mean ± S.E.M., n = 4
Procedure: as §1, §2

TRPA1 = experiment: Selectivity: AITC-evoked TRPA1 current; format: cell-based, human; conditions: 30 μM AITC; normalized to 1 mM AITC; mean ± S.E.M., n = 4
Procedure: as §1, §2

[1] = cited from earlier work
Source text: Transient receptor potential vanilloid 1 (TRPV1) ion channel is a polymodal nociceptor broadly expressed in sensory neurons involved in pain sensation, making this channel a target for analgesia. Since TRPV1 deletion in rodents led to significant tolerance to noxious heat hyperalgesia[3],[4], antagonists of TRPV1 became the first choice to develop analgesic agents targeting TRPV1 in the past decades. Pharmacological inhibition TRPV1 indeed effectively alleviates dental, rectal, and thermal pain[5],[6]. However, TRPV1 also plays critical roles in thermoregulation, thus its antagonists suf ... || Positive allosteric modulator (PAM) is defined as a ligand without direct activation of its target, but potentiates the activity of agonists of targets. PAMs of TRPV1 have shown significant analgesic effect by inducing calcium overloading in previous reports[11],[12]. For instance, MRS1477 is developed as a small molecule PAM of TRPV1[13]. […] However, as both De1 and De3 bind to the intracell ... || TRPV1 plays a critical role in the pathogenesis of chronic pain[30]–[33], and has been a long-pursued target for pain management. To circumvent the side effects of the first-generation channel inhibitors occurred in clinical trials, alternative strategies such as the PAMs of TRRV1 have been developed.

TRPV1 [2] = conditions: cited from earlier work
Source text: Positive allosteric modulator (PAM) is defined as a ligand without direct activation of its target, but potentiates the activity of agonists of targets. PAMs of TRPV1 have shown significant analgesic effect by inducing calcium overloading in previous reports[11],[12]. For instance, MRS1477 is developed as a small molecule PAM of TRPV1[13]. […] For instance, noxious heat, proton, and divalent cations induce conformational changes in the outer pore to activate TRPV1[27]–[29].

[3] = local delivery; words
Procedure: 20 μl of CFA was injected first to induce a chronic pain model. […] All data were shown as mean ± S.E.M. Source data are available as a Source Data file.
Complete Freund’s adjuvant (CFA) was injected at a volume of 20 μl to induce chronic inflammatory pain.

[4] = test system: DRG neurons, Trpv1-Ai14 mice; experiment: Trpv1+ and Nissl+ neurons in DRGs; format: in vivo; conditions: for Trpv1+ neurons (% of all neurons): sheet S5e
Procedure: (§3) Adult C57 BL/6 mice (male, 8–10 weeks) and Trpv1^-/- mice (Jax Strain #:003770) were used for behavioral studies. To specifically label Trpv1-positive nerve fibers in skin tissues, Trpv1-Cre mice[36] (Jax Strain #:017769) were crossed with floxed reporter lines (Ai32, Jax Strain #:012569 or Ai14, Jax Strain #:007914) to get the transgenic reporter (Trpv1-Ai32 or Trpv1-Ai14) mice. Mice were group-housed at 22–24 °C and relative humidity of 30–70% under the 12 h light-dark cycle with access to standard food and water ad libitum. All the animal procedures were approved by the Institutional Animal Care & Use Committee (IACUC) of Zhejiang University.
(§4) After appropriate survival times, the mice were deeply anesthetized with isoflurane and perfused through the ascending aorta with PBS, followed by 4% PFA. After the perfusion, the hind paw glabrous skins and L4-L6 DRGs were removed and postfixed in the same fixative overnight. Skin sections (30 μm) and DRG sections (10 μm) were cut in a cryostat. Sections were blocked with 2% BSA for 2 h at room temperature and then incubated with Deep-red 640/660-conjugated Nissl (1:1000) at room temperature for 2 h. Sections were then incubated with DAPI (1:10,000, Vector Laboratories, catalog H-1200) for 5 min, followed by three times washing with PBS for 5 min each. The stained and mounted sections were examined with a Nikon fluorescence microscope, and images were captured with a charge-coupled device Spot camera. For quantification analysis, at least three sections from each mouse were selected, and at least three mice were analyzed in each group. To evaluate Trpv1-positive nerve fiber degeneration, transgenic reporter (Trpv1-Ai32 or Trpv1-Ai14) mice were used for the quantification of intra-epidermal nerve fiber (IENF) density. IENF density was calculated by counting the number of IENF crossing the epidermis-dermis boundary within unit length.

mouse hind paw = format: in vivo, mice; conditions: 2 μg folded s-RhTx with capsaicin 200 ng; n = 9; words
Source text: (§5) Figure R3. […] (A) Statistical […]
(§6) results of hind paw thickness in mice.
(§7) N.S., not significant, two-way ANOVA. n = 9 mice in each group. (B) H&E staining showing the results of cell […]
(§8) N.S., not significant, n = 3 mice in each group. Scale bar, 50 μm. All data were shown as mean ± s.e.m. […]
(§9) different experiment should be performed.
(§10) Response: We thank the reviewer for the insightful comments. We also agree with the reviewer that the local injections of s-RhTx in this study are not likely to change body temperature. To test […]
(§11) 1) in mice and measured body temperature. […]
(§12) n = 6 mice in each group. No significance in two-way ANOVA. All data were shown as mean ± s.e.m. […]

mouse hind paw skin = format: in vivo, mice; conditions: 1 week; folded s-RhTx with capsaicin; n = 3; words
Source text: as §5, §6, §7, §8, §9, §10, §11, §12

[5] = format: in vivo, mice; conditions: i.p. 10 mg kg-1 peptide with capsaicin 1 mg kg-1; n = 6; words
Source text: as §5, §6, §7, §8, §9, §10, §11, §12

TRPV1 E652D [6] = target: T1, TRPV1 E652D (Mus musculus, UniProt Q704Y3, E652D); experiment: Calcium imaging, TRPV1 mutant E652D; format: cell-based, murine; conditions: 30 μM s-RhTx with 10 nM capsaicin; n = 45
T1 sequence (Q704Y3 whole entry E652D): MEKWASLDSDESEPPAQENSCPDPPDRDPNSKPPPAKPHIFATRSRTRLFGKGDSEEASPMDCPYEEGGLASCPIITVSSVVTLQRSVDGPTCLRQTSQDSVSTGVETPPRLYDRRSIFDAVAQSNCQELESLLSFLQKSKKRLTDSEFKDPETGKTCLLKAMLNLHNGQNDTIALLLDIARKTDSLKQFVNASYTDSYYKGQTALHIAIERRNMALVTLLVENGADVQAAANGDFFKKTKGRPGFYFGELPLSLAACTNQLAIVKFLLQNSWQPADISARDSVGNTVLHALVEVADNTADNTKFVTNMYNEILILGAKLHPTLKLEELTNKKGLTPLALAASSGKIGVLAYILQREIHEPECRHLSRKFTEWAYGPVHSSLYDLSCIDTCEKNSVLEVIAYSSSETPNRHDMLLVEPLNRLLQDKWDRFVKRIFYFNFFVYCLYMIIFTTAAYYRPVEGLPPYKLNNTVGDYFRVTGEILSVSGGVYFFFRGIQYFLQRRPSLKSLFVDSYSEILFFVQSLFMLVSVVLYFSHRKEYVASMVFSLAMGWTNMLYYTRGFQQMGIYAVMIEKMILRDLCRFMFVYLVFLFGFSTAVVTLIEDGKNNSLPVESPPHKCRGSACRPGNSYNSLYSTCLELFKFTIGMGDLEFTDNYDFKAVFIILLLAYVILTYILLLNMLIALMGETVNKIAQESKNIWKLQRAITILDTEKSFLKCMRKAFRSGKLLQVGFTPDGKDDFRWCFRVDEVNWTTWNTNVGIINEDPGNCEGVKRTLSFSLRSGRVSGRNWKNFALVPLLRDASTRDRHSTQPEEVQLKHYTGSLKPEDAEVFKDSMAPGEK
Procedure: (§13) Site mutations of mTRPV1 were generated by Fast Mutagenesis Kit (Takara Bio). Primers used to generate point mutations are summarized in Supplementary Table 1. All mutations were confirmed by sequencing.
(§14) Calcium imaging assay was performed as previously described[12],[20]. In brief, HEK293T cells expressing TRPV1 were incubated with 2 μM Fluo-4 AM (Thermo Fisher) in 2 mM calcium Ringer’s solution (140 mM NaCl, 5 mM KCl, 2 mM MgCl2, 2 mM CaCl2, 10 mM glucose, and 10 mM HEPES, pH 7.4). Fluorescence images of HEK293T cells were acquired with Nikon Eclipse Ti2 microscope with optiMOS charge-coupled device camera controlled by the Ocular Software (Molecular Devices). Fluo-4 AM was excited at 500/20-nm excitation, and fluorescence emission was detected at 535/30-nm. Fluorescence images were analyzed with Fiji software and Office Excel.

TRPV1 E652D [7] = target: T1, TRPV1 E652D; experiment: Mutant cycle analysis: concentration response, Kd and L on TRPV1 E652D; format: cell-based, murine; conditions: mean ± S.E.M.
Procedure: In this analysis, the ligand binding (represented by Kd) and subsequent conformational changes leading to channel opening (represented by L) were separately quantified. Kd and L were calculated by the formulae: EC50 = Kd/(1 + L) and Po max = L/(1 + L), when Po max and EC50 are experimentally measured[20],[21]. Previously we have successfully performed this analysis to establish the interactions between peptide toxin BmP01 and TRPV1[16].
as §13
Patch-clamp recordings were carried out with a HEKA EPC10 amplifier controlled by PatchMaster software (HEKA). Patch pipettes were prepared from borosilicate glass and fire-polished to resistance of 3–8 MΩ by P-97 puller. Both bath solution and pipette solution contained 130 mM NaCl, 10 mM glucose, 0.2 mM EDTA, and 3 mM HEPES and were adjusted to pH 7.2–7.4 with NaOH for whole-cell recordings. […]
(§15) Data from whole-cell recordings were analyzed in Igor Pro version 5.05 (WaveMatrix). […]
The strength of coupling was determined by the coupling energy (kT multiplied by LnΩ, where k is the Boltzmann constant and T is temperature in Kelvin). LnΩ was calculated by the following equation: LnΩ=LnKd_1⋅Kd_4/Kd_2⋅Kd_3

TRPV1 [8] = target: T2, TRPV1 (Mus musculus, UniProt Q704Y3); experiment: Whole-cell patch clamp: potentiation of capsaicin-evoked TRPV1 current; format: cell-based, murine
T2 sequence (Q704Y3 whole entry): as the sequence (Q704Y3 whole entry E652D) above, with D652E counted along it
Procedure: as §1
as §2, with “Patch pipette holding cells was placed in front of the perfusion tube outlet for perfusion.” left out
as §15

TRPV1 [9] = target: T2, TRPV1; experiment: Calcium imaging, HEK293T cells expressing TRPV1; format: cell-based, murine; conditions: 30 μM s-RhTx with 10 nM capsaicin; n = 12
Procedure: as §1, §14

TRPV1 [10] = target: T2, TRPV1; experiment: Whole-cell patch clamp: potentiation of proton-evoked TRPV1 current; format: cell-based, murine; conditions: pH 6.5; Hill fit; n = 4 cells; read-out: EC50, enhancement of proton-induced current
Procedure: as §1
as §2, with “Patch pipette holding cells was placed in front of the perfusion tube outlet for perfusion.” left out
as §15

[11] = test system: Trpv1+ nerve fibers, Trpv1-Ai32 / Trpv1-Ai14 mice; experiment: Trpv1+ intra-epidermal nerve fiber (IENF) quantification; format: in vivo; conditions: folded s-RhTx without capsaicin; words
Procedure: as §3, §4

NCCOB(c1ccccc1)c1ccccc1 [2-APB]
normalized TRPV2 current, 2-APB alone (TRPV2): 7.06 ± 2.25% | normalized TRPV3 current, 2-APB alone (TRPV3): 7.08 ± 3.57%

C=CCN=C=S [AITC]
normalized TRPA1 current, AITC alone (TRPA1): 41.06 ± 12.85%

CCOC(=O)C1=C(c2ccccc2)NC(C)=C(C(=O)SCCOC)C1CC (centres unmarked) [MRS1477]
duration of analgesic effects [1]: about two weeks | TRPV1 activation by capsaicin (TRPV1 [2]): enhances TRPV1 activation by capsaicin

C=C(C)[C@]12C[C@@H](C)[C@@]34O[C@](Cc5ccccc5)(O[C@@H]1[C@@H]3C=C(COC(=O)Cc1ccc(O)c(OC)c1)C[C@]1(O)C(=O)C(C)=C[C@@H]41)O2 [resiniferatoxin]
cell death in TRPV1-expressing neurons [1]: induces cells death in TRPV1-expressing neurons

CC[C@H](C)[C@H](NC(=O)[C@@H]1CSSC[C@@H]2NC(=O)[C@H]([C@@H](C)O)NC(=O)[C@H](C(C)C)NC(=O)CNC(=O)[C@H](CC(N)=O)NC(=O)[C@@H](NC(=O)[C@@H]3CCCN3)CSSC[C@H](NC(=O)[C@H](CCCNC(=N)N)NC(=O)[C@H](Cc3ccc(O)cc3)NC(=O)CNC(=O)[C@H](CO)NC(=O)[C@@H]3CCCN3C2=O)C(=O)N[C@@H](CO)C(=O)N[C@@H]([C@@H](C)CC)C(=O)N[C@@H](C(C)C)C(=O)N[C@@H](CC(=O)O)C(=O)N[C@@H](CCCCN)C(=O)N[C@@H](CCC(N)=O)C(=O)N1)C(=O)N[C@@H](CCCCN)C(=O)N[C@@H](CCCCN)C(=O)N[C@@H](CCC(=O)O)C(=O)O [s-RhTx] (H-PCNGVTCPSGYRCSIVDKQCIKKE-OH; disulfide 2-13, 7-20)
body temperature change [3]: did not cause any changes in the body temperature | Trpv1+ neuron proportion and total neuron density in DRGs ([4]; co-injection with capsaicin, 1 and 4 weeks, words, listed as folded s-RhTx): did not change at 1 week; also recorded: not significantly changed | Trpv1+ neurons (% of all neurons) ([4]; 1 week, Mouse # 1): 33.4% | Trpv1+ neurons (% of all neurons) ([4]; 1 week, Mouse # 2): 33.4% | Trpv1+ neurons (% of all neurons) ([4]; 1 week, Mouse # 3): 35.2% | Trpv1+ neurons (% of all neurons) ([4]; 4 weeks, Mouse # 1): 37.1% | Trpv1+ neurons (% of all neurons) ([4]; 4 weeks, Mouse # 2): 32.1% | Trpv1+ neurons (% of all neurons) ([4]; 4 weeks, Mouse # 3): 33.0% | local inflammation of hind paw (mouse hind paw): no obvious local | recruitment of immune cells (mouse hind paw skin): did not induce the recruitment | body temperature change, systemic [5]: didn’t change body temperature | increase of intracellular calcium fluorescence, E652D (TRPV1 E652D [6]): 47.5 ± 0.05% | EC50 (TRPV1 E652D [7]): 7160 ± 1420 nM | EC50 (TRPV1 [8]): 890 ± 450 nM | enhancement of intracellular calcium, WT TRPV1 (TRPV1 [9]): 56.09 ± 8.62% | EC50 (TRPV1 [10]): 1580 ± 500 nM | IENF degeneration, peptide alone [11]: did not induce
